Assay results: patent US20060199856A1, “Novel compounds as anti-inflammatory, immunomodulatory and anti-proliferatory agents” (4 SC AG, priority 2001, published 2006)

Legend:
[1] = molecular target: T1, recombinant murine DHODH (Mus musculus, UniProt O35435); assay: Inhibition assay of DHODH activity (murine enzyme); type: biochemical; settings: numeric values or words
T1 construct: provided by Prof; M. Löffler, Marburg, Germany (gift, not purchased)
Method: (§1) The standard assay mixture contained 50 μM decyclo ubichinone, 100 μM dihydroorotate, 60 μM 2,6-dichloroindophenol, as well as 20 mU DHODH. The volume activity of the recombinant enzyme used was 30 U/ml. Measurements were conducted in 50 mM TrisHCl (150 mM KCl, 0,1% Triton X-100, pH. 8,0) at 30° C. in a final volume of 1 ml. The components were mixed, and the reaction was started by adding dihydroorotate. The course of reaction was followed by spectrophotometrically measuring the decrease in absorption at 600 nm for 2 min.
(§2) Inhibitory studies were conducted in a standard assay with additional variable amounts of inhibitor.
(§3) These investigations were carried out with recombinant human as well as with recombinant murine DHODH provided by Prof. M. Löffler, Marburg, Germany [M. Löffler, Chem. Biol. Interact.

[2] = test system: human lymphocyte cell proliferation; assay: Proliferation Assay of Human T-Cells; type: cell-based; settings: 100 μM, activated human MNC, 48 hours
Method: Buffy coats of healthy donors were obtained from the local Red Cross; from these human mononuclear cells (MNC) were isolated using Accuspin™ System-Histopaque-1077 (Sigma) according to the protocol recommended by the manufacturer. Cells were seeded at densities of 5×10^4 or 1×10^5 cells per well in 96 well flat bottom plates in RPMI 1640 supplemented with 10% fetal calf serum, 2 mM L-glutamine and penicillin/streptomycin. Cells were activated with 1 μg/ml phytohaemagglutinin (PHA, Sigma) or 20 nM PMA (phorbol-12-myristate-13-acetate)/10 μM ionomycin (Calbiochem) and incubated with the test compounds in a final volume of 100 μl for 48 hours. Proliferation was measured using the CellTiter 96® Aqueous One Solution Cell Proliferation Assay (Promega) according to the lymphocyte assay protocol supplied by the manufacturer.

[3] = molecular target: T2, recombinant human DHODH (Homo sapiens, UniProt Q02127); assay: Inhibition assay of DHODH activity (human enzyme); type: biochemical
T2 construct: provided by Prof; M. Löffler, Marburg, Germany (gift, not purchased)
T2 sequence (Q02127 whole entry): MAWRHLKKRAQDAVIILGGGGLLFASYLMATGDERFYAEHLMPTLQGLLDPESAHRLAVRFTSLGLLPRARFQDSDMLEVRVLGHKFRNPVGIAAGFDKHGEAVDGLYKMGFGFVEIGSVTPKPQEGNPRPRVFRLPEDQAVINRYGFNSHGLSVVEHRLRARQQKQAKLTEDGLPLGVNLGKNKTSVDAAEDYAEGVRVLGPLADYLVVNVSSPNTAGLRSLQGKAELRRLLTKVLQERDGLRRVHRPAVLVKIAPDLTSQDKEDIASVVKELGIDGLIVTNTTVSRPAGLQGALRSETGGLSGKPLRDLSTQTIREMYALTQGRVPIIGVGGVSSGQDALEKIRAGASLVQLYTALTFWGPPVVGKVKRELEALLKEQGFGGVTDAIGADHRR
Method: as §1, §2, §3

T1 sequence (O35435 whole entry): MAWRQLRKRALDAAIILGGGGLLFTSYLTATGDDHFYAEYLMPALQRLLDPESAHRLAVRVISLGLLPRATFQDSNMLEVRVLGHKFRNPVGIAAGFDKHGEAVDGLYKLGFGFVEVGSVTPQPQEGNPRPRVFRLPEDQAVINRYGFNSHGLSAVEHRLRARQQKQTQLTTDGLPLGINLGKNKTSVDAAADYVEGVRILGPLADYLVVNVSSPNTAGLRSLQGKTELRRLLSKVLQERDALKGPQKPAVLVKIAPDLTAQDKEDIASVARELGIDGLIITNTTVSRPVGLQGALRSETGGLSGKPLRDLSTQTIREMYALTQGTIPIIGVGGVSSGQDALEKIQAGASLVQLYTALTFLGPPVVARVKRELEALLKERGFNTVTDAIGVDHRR

O=C(O)C1=C(C(=O)Nc2ccc(-c3ccccc3)cc2)CCC1 [Compound 02, 2-(Biphenyl-4-ylcarbamoyl)-cyclopent-1-enecarboxylic acid]
IC50 [1]: 4000 nM
reduction of human lymphocyte cell proliferation [2]: 40%
IC50 [3]: 690 nM
